Earlier results on 2 compounds are cited in patent publication US20210199674A1, “TREATMENT METHOD, ANALYZING DEVICE, AND SURFACE TREATING LIQUID” (ARKRAY, Inc., priority 2019, published 2021).

The conditions of the data set: for acid dissociation constant pKa1: first acidic proton dissociates; for acid dissociation constant pKa4: fourth acidic proton dissociates; for acid dissociation constant pKa2: second acidic proton dissociates; for acid dissociation constant pKa3: third acidic proton dissociates.

SMILES strings stand for the structures.

For `O=P(O)(O)CP(=O)(O)O` [methylene diphosphonate], the “acid dissociation constant pKa1” value is 1.43, the “acid dissociation constant pKa4” value is recorded as 10.96, the “acid dissociation constant pKa2” value is on record as 3.05 and the “acid dissociation constant pKa3” value is 7.35.

In the case of `O=P(O)(O)OP(=O)(O)O` [pyrophosphoric acid], the “acid dissociation constant pKa1” value is 0.9, the “acid dissociation constant pKa4” value was 9.4, the “acid dissociation constant pKa2” value is 2.0 and the “acid dissociation constant pKa3” value is 6.6.
